Columns and labels:
[1] = tested on: AMARE; assay: Post-emergence herbicidal action against AMARE; type: in vivo, Amaranthus retroflexus; conditions: visual rating about 3 weeks after treatment
How it was run: (§1)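 Weeds grown in sandy loam under greenhouse conditions were sprayed at the one-leaf stage, 2-3 weeks after sowing. Compounds were applied as WP or EC formulations in water with 0.5% additive at 600 L/ha, at 1280 or 320 g/ha. Activity was rated visually about 3 weeks later against untreated controls (0-100%).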

[2] = tested on: VIOTR; assay: Pre-emergence herbicidal action against VIOTR; type: in vivo, Viola tricolor; conditions: 1280 g/ha, scored visually after about 3 weeks vs untreated controls
How it was run: (§2)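 Weed seeds were sown in sandy loam soil in pots and covered; compounds formulated as WP or EC were sprayed onto the covering soil as aqueous suspension/emulsion with 0.5% additive at 600 L/ha water. Application rate 1280 or 320 g/ha. Greenhouse grown; visual % activity vs untreated controls after about 3 weeks.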

[3] = tested on: MATIN; assay: Pre-emergence herbicidal action against MATIN; type: in vivo, Matricaria inodora; conditions: 1280 g/ha, scored visually after about 3 weeks vs untreated controls
How it was run: as §2

[4] = tested on: SETVI; assay: Post-emergence herbicidal action against SETVI; type: in vivo, Setaria viridis; conditions: 1280 g/ha, post-emergence at one-leaf stage, rated visually after about 3 weeks vs untreated controls
How it was run: as §1

[5] = tested on: PHBPU; assay: Post-emergence herbicidal action against PHBPU; type: in vivo, Pharbitis purpurea; conditions: 320 g/ha, visual rating about 3 weeks after treatment
How it was run: as §1

[6] = tested on: AMARE; assay: Pre-emergence herbicidal action against AMARE; type: in vivo, Amaranthus retroflexus; conditions: scored visually after about 3 weeks vs untreated controls; for Pre-emergence action at 320 g/ha against AMARE in %: 100% = plants have died, 0% = like control plants; for Pre-emergence action against AMARE in %: 1280 g/ha
How it was run: as §2

[7] = tested on: ALOMY; assay: Pre-emergence herbicidal action against ALOMY; type: in vivo, Alopecurus myosuroides; conditions: scored visually after about 3 weeks vs untreated controls, 100% = plants have died, 0% = like control plants
How it was run: as §2

[8] = tested on: STEME; assay: Post-emergence herbicidal action against STEME; type: in vivo, Stellaria media; conditions: visual rating about 3 weeks after treatment
How it was run: as §1

[9] = tested on: VIOTR; assay: Post-emergence herbicidal action against VIOTR; type: in vivo, Viola tricolor; conditions: 320 g/ha, visual rating about 3 weeks after treatment
How it was run: as §1

[10] = tested on: ALOMY; assay: Post-emergence herbicidal action against ALOMY; type: in vivo, Alopecurus myosuroides; conditions: 1280 g/ha, post-emergence at one-leaf stage, rated visually after about 3 weeks vs untreated controls
How it was run: as §1

[11] = tested on: ECHCG; assay: Post-emergence herbicidal action against ECHCG; type: in vivo, Echinochloa crus-galli; conditions: 1280 g/ha, post-emergence at one-leaf stage, rated visually after about 3 weeks vs untreated controls
How it was run: as §1

[12] = tested on: ECHCG; assay: Pre-emergence herbicidal action against ECHCG; type: in vivo, Echinochloa crus-galli; conditions: scored visually after about 3 weeks vs untreated controls, 100% = plants have died, 0% = like control plants
How it was run: as §2

[13] = tested on: POLCO; assay: Post-emergence herbicidal action against POLCO; type: in vivo, Polygonum convolvulus; conditions: 320 g/ha, visual rating about 3 weeks after treatment
How it was run: as §1

[14] = tested on: harmful plants; assay: Pre-emergence herbicidal action, summary of Tables 4.1-4.15; type: in vivo; conditions: result in words
How it was run: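 Percent herbicidal action (100% = plants dead, 0% = like controls) was assessed visually about 3 weeks after treatment. Application rates of 1280 or 320 g/ha were applied to the covering soil of freshly sown sandy-loam pots, in 600 l/ha water with 0.5% additive, before emergence.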

[15] = tested on: PHBPU; assay: Pre-emergence herbicidal action against PHBPU; type: in vivo, Pharbitis purpurea; conditions: 1280 g/ha, scored visually after about 3 weeks vs untreated controls
Source text: (§3) Seeds of mono- and dicotyledonous weed plants are placed in plastic pots in sandy loam soil (doubly sown with one species each of mono- or dicotyledonous weed plants per pot) and covered with soil. The compounds of the invention, formulated in the form of wettable powders (WP) or as emulsion concentrates (EC), are then applied onto the surface of the covering soil as aqueous suspension or emulsion with addition of 0.5% additive at a water application rate equivalent to 600 litres per hectare. After the treatment, the pots are placed in a greenhouse and kept under good growth conditions for the trial plants. After about 3 weeks, the effect of the preparations is scored visually in comparison with untreated controls as percentages. For example, 100% activity=the plants have died, 0% activity=like control plants. [table] Tables 4.1-4.15 below show the effects of selected compounds of the general formula (I) according to Tables 1 to 3 on various harmful plants at an application rate corresponding to 1280 or 320 g/ha, which have been obtained by the aforementioned experimental method.

[16] = tested on: SETVI; assay: Pre-emergence herbicidal action against SETVI; type: in vivo, Setaria viridis; conditions: 1280 g/ha, scored visually after about 3 weeks vs untreated controls
How it was run: as §2

[17] = tested on: STEME; assay: Pre-emergence herbicidal action against STEME; type: in vivo, Stellaria media; conditions: scored visually after about 3 weeks vs untreated controls
How it was run: as §2

[18] = tested on: CYPES; assay: Pre-emergence herbicidal action against CYPES; type: in vivo, Cyperus esculentus; conditions: scored visually after about 3 weeks vs untreated controls, 100% = plants have died, 0% = like control plants
Source text: as §3

[19] = tested on: MATIN; assay: Post-emergence herbicidal action against MATIN; type: in vivo, Matricaria inodora; conditions: visual rating about 3 weeks after treatment
How it was run: as §1

[20] = tested on: HORMU; assay: Pre-emergence herbicidal action against HORMU; type: in vivo, Hordeum murinum; conditions: 320 g/ha, scored visually after about 3 weeks vs untreated controls
Source text: as §3

[21] = tested on: POLCO; assay: Pre-emergence herbicidal action against POLCO; type: in vivo, Polygonum convolvulus; conditions: 320 g/ha, scored visually after about 3 weeks vs untreated controls
How it was run: as §2

[22] = tested on: HORMU; assay: Post-emergence herbicidal action against HORMU; type: in vivo, Hordeum murinum; conditions: 320 g/ha, visual rating about 3 weeks after treatment
Protocol: [table] Seeds of mono- and dicotyledonous weed plants are placed in plastic pots in sandy loam soil (twin sowing with one species each of mono- or dicotyledonous weed plants per pot), covered with soil and cultivated in a greenhouse under controlled growth conditions. 2 to 3 weeks after sowing, the test plants are treated at the one-leaf stage. The compounds of the invention, formulated in the form of wettable powders (WP) or as emulsion concentrates (EC), are applied to the green parts of the plants as aqueous suspension or emulsion with addition of 0.5% additive at a water application rate equivalent to 600 litres per hectare. After the test plants have been kept in the greenhouse under optimum growth conditions for about 3 weeks, the activity of the preparations is rated visually in comparison to untreated controls. For example, 100% activity=the plants have died, 0% activity=like control plants. Tables 5.1-5.16 below show the effects of selected compounds of the general formula (I) according to Tables 1 to 3 on various harmful plants at an application rate corresponding to 1280 or 320 g/ha, which have been obtained by the aforementioned experimental method.

COC(=O)C(C)Oc1nn(-c2ccccc2F)c(-c2ccccc2)c1C#N (centres unmarked) [I-061]
Post-emergence action against AMARE in % ([1]; 320 g/ha): 80% | Post-emergence action against AMARE in % ([1]; 1280 g/ha): 80% | Pre-emergence action against VIOTR in % [2]: 90% | Pre-emergence action against MATIN in % [3]: 90% | Post-emergence action against SETVI in % [4]: 80% | Post-emergence action against PHBPU in % [5]: 80% | Pre-emergence action at 320 g/ha against AMARE in % [6]: 90% | Pre-emergence action against AMARE in % [6]: 100% | Pre-emergence action at 1280 g/ha against ALOMY in % [7]: 90% | Post-emergence action against STEME in % ([8]; 1280 g/ha): 80% | Post-emergence action against VIOTR in % [9]: 80% | Post-emergence action against ALOMY in % [10]: 90% | Post-emergence action against ECHCG in % [11]: 80% | Pre-emergence action at 1280 g/ha against ECHCG in % [12]: 90% | Post-emergence action against POLCO in % [13]: 80% | herbicidal efficacy against harmful plants in the case of pre-emergence treatment [14]: good herbicidal efficacy | Pre-emergence action against PHBPU in % [15]: 90% | Pre-emergence action against SETVI in % [16]: 100% | Pre-emergence action against STEME in % ([17]; 320 g/ha): 90% | Pre-emergence action against STEME in % ([17]; 1280 g/ha): 100% | Pre-emergence action at 1280 g/ha against CYPES in % [18]: 90%

COC(=O)C(C)Oc1nn(-c2ccccc2)c(-c2ccc(F)cc2)c1C#N (centres unmarked) [I-064]
Post-emergence action against MATIN in % ([19]; 320 g/ha): 80% | Pre-emergence action against HORMU in % [20]: 90% | Post-emergence action against PHBPU in % [5]: 80% | Pre-emergence action at 320 g/ha against AMARE in % [6]: 100% | Pre-emergence action against POLCO in % [21]: 100% | Post-emergence action against STEME in % ([8]; 320 g/ha): 90% | Post-emergence action against HORMU in % [22]: 90% | Post-emergence action against VIOTR in % [9]: 100% | Post-emergence action against POLCO in % [13]: 80% | Pre-emergence action against STEME in % ([17]; 320 g/ha): 90%

CCOC(=O)COc1nn(-c2ccccc2)c(-c2ccccc2)c1Br [I-070]
Post-emergence action against AMARE in % ([1]; 1280 g/ha): 80% | Pre-emergence action against VIOTR in % [2]: 90% | Pre-emergence action against MATIN in % [3]: 90% | Post-emergence action against MATIN in % ([19]; 1280 g/ha): 80% | Post-emergence action against PHBPU in % [5]: 90% | Pre-emergence action at 320 g/ha against AMARE in % [6]: 100% | Pre-emergence action against AMARE in % [6]: 100% | Pre-emergence action against POLCO in % [21]: 80% | Pre-emergence action at 1280 g/ha against ALOMY in % [7]: 90% | Post-emergence action against STEME in % ([8]; 1280 g/ha): 90% | Post-emergence action against ALOMY in % [10]: 80% | Post-emergence action against ECHCG in % [11]: 80% | Pre-emergence action at 1280 g/ha against ECHCG in % [12]: 90% | herbicidal efficacy against harmful plants in the case of pre-emergence treatment [14]: good herbicidal efficacy | Pre-emergence action against PHBPU in % [15]: 90% | Pre-emergence action against SETVI in % [16]: 90% | Pre-emergence action against STEME in % ([17]; 320 g/ha): 80% | Pre-emergence action against STEME in % ([17]; 1280 g/ha): 90% | Pre-emergence action at 1280 g/ha against CYPES in % [18]: 80%
